Measurements taken from patent publication US5089513A, “5-lipoxygenase inhibitory thiazoles” (ICI Pharma, priority 1988, dated 1992).

How the values were obtained:
5-LO [1] = molecular target: T1, 5-LO (Homo sapiens, UniProt P09917); experiment: Test b) heparinised human blood challenged with A23187, LTB4 radioimmunoassay; format: cell-based
T1 construct: incubating a test compound with heparinised human blood; endogenous in cells; host or cells: leukocytes in heparinised human whole blood
T1 sequence (P09917 1-674): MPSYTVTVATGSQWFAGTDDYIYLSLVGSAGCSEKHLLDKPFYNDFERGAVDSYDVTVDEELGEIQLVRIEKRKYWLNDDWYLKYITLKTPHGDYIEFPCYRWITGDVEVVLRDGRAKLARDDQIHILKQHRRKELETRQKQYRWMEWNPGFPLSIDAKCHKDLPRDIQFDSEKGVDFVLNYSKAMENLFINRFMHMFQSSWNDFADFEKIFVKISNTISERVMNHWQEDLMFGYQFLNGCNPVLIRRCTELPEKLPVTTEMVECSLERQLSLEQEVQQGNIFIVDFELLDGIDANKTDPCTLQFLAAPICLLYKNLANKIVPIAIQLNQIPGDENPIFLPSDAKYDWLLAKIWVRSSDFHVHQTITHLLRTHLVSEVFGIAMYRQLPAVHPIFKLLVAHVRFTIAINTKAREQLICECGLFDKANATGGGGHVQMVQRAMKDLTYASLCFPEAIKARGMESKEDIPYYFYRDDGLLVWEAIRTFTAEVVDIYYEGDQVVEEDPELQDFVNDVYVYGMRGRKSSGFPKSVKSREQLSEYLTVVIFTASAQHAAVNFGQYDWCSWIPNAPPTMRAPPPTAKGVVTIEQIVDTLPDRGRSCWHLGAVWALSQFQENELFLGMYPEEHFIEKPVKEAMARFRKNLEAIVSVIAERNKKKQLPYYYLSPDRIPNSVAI
Description: b) An in vitro assay system involving incubating a test compound with heparinised human blood, prior to challenge with the calcium ionophore A23187 and then indirectly measuring the inhibitory effects on 5-LO by assaying the amount of LTB4 using the specific radioimmunoassay described by Carey and Forder (F. Carey and R. A. Forder, Brit. […] This test provides an indication of the effects of a test compound against 5-LO and also cyclooxygenase in the presence of blood cells and proteins. It permits the selectivity of the inhibitory effect on 5-LO or cyclooxygenase to be assessed.

5-LO [2] = molecular target: T2, 5-LO (Rattus norvegicus, UniProt P12527); experiment: Test c) ex vivo assay, blood collected after oral administration, A23187 challenge, LTB4 radioimmunoassay; format: in vivo
T2 construct: blood collection, heparinisation, challenge with A23187 and radioimmunoassay of LTB4 and TxB2; endogenous in cells
T2 sequence (P12527 1-673): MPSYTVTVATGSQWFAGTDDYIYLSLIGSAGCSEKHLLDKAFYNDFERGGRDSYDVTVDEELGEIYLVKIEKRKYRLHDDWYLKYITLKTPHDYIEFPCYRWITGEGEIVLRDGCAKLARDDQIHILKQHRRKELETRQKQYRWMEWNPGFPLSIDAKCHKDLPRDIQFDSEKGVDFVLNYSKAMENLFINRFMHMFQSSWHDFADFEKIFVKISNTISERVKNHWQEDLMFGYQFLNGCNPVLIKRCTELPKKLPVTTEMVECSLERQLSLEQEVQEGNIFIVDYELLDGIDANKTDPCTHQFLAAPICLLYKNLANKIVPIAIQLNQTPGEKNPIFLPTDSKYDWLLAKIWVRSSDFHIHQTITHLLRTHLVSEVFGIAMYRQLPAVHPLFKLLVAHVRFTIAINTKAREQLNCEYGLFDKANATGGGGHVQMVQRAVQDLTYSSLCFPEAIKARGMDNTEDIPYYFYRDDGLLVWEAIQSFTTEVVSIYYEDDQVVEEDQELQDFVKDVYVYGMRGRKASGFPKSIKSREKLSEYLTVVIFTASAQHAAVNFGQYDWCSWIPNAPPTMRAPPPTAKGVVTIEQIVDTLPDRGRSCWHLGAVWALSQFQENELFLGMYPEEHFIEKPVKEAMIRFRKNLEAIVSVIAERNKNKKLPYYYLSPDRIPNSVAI

5-LO [3] = molecular target: T3, 5-LO (Cavia porcellus, UniProt A0A286X958); experiment: Test a) in vitro spectrophotometric cell free enzyme assay using 5-LO isolated from guinea pig neutrophils; format: biochemical
T3 construct: 5-LO isolated from guinea pig neutrophils; endogenous in cells; host or cells: guinea pig neutrophils (enzyme isolated, soluble, cell-free)
T3 sequence (A0A286X958 1-674): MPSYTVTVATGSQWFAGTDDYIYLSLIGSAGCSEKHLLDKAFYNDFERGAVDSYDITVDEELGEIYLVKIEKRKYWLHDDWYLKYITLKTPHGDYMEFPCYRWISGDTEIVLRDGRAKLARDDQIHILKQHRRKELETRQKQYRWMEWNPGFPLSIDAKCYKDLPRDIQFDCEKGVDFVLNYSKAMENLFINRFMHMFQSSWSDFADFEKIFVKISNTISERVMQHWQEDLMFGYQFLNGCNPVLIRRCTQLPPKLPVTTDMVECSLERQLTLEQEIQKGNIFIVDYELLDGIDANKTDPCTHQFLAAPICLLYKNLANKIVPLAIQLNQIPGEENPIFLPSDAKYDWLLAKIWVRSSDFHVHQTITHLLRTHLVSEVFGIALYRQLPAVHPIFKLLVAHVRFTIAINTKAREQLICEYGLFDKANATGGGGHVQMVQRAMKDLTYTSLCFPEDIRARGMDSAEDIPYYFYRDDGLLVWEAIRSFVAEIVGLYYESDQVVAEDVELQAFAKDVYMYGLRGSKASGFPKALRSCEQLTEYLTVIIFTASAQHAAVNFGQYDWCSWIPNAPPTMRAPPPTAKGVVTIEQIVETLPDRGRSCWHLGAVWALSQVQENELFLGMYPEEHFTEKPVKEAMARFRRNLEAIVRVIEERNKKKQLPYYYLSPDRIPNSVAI
Excerpt: a) An in vitro spectrophotometric enzyme assay system, which assesses the inhibitory properties of a test compound in a cell free system using 5-LO isolated from guinea pig neutrophils and as described by D.Aharony and R. L. Stein (J. Biol. Chem., 1986, 261(25), 11512-11519). This test provides a measure of the intrinsic inhibitory properties against soluble 5-LO in an extracellular environment.

cyclooxygenase = molecular target: T4, cyclooxygenase (Homo sapiens, UniProt P23219); experiment: Test b) heparinised human blood challenged with A23187, TxB2 radioimmunoassay; format: cell-based
T4 construct: incubating a test compound with heparinised human blood; endogenous in cells; host or cells: blood cells (mainly platelets, own knowledge) in heparinised human whole blood
Description: b) An in vitro assay system involving incubating a test compound with heparinised human blood, prior to challenge with the calcium ionophore A23187 and then indirectly measuring the inhibitory effects on 5-LO by assaying the amount of LTB4 using the specific radioimmunoassay described by Carey and Forder (F. Carey and R. A. Forder, Brit. J. Pharmacol. 1985, 84, 34P) which involves the use of a protein-LTB4 conjugate produced using the procedure of Young et alia (Prostaglandins, 1983, 26(4),605-613). The effects of a test compound on the enzyme cyclooxygenase (which is involved in the alternative metabolic pathway for arachidonic acid and gives rise to prostaglandins, thromboxanes and related metabolites) may be measured at the same time using the specific radioimmunoassay for thromboxane B2 (TxB2) described by Carey and Forder (see above). This test provides an indication of the effects of a test compound against 5-LO and also cyclooxygenase in the presence of blood cells and proteins. It permits the selectivity of the inhibitory effect on 5-LO or cyclooxygenase to be assessed.

T4 sequence (P23219 24-599): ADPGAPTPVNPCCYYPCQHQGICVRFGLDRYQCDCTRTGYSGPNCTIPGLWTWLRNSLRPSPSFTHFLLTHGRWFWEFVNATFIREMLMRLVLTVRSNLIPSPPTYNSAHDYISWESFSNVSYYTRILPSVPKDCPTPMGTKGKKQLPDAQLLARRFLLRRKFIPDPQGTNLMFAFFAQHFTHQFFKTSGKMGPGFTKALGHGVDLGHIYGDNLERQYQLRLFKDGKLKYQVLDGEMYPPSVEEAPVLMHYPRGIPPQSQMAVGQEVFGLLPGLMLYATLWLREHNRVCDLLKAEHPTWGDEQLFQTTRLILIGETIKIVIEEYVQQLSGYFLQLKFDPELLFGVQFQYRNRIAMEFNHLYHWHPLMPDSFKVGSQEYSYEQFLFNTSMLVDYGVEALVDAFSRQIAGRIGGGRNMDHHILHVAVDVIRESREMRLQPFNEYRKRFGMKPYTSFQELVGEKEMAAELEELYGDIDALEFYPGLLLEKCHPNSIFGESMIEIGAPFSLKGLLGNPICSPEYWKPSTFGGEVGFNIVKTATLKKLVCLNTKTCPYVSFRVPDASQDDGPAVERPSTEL

IC50 (5-LO [1]) [µM] | ED50 (5-LO [2]) [mg/kg] | IC50 (5-LO [3]) [µM] | IC50 (cyclooxygenase) [µM] | Compound
0.04 | 10 | – | – | CCC(OC)(c1cccc(OCC#Cc2ccc(F)cc2)c1)c1nccs1 (centres unmarked) [2-[1-[3-(3-(4-fluorophenyl)prop-2-ynyloxy)phenyl]-1-methoxypropyl]thiazole]
– | 10 | 0.1 | > 100 | CCC(OC)(c1cccc(OCc2ccc3ccccc3c2)c1)c1nccs1 (centres unmarked) [2-[1-methoxy-1-[3-(naphth-2-ylmethoxy)phenyl]propyl]thiazole]
